Key:
[1] = test system: G144 cells; assay: Proliferation rate analysis by p-His-3 immunostaining in G144 cells; type: cell-based, human; details: G144, 4.5 µM, 72 h (data not shown)
From the text: It is noteworthy that G144 cells proliferate very slowly and, at maintenance culture conditions, about 90% of the cells are in G1 phase of the cell cycle (data not shown).

[2] = test system: G144-GNSC cells; assay: Transcriptome comparison (DESeq2) of G144-GNSC cells after treatment; type: cell-based, human; details: DESeq2, p-adj<0.01, treated vs non-treated G144-GNSC
From the text: Finally, to elucidate the molecular basis of BMT9 effect on the stemness potential of the GNSCs, we compared the transcriptome of non-treated G144-GNSC cells with those after BMT9 treatment. The DESeq2 analysis identified 6163 differentially expressed genes (DEGs) with a p-adj<0.01. […] Among the found DEGs we found GSC markers like PROM1(CD133), LGR5, or SOX1 and SOX4, as well as key regulators involved in maintenance of the cancer cell stemness state like SOX9 (Wang et al., 2018)(Aldaz et al., 2020), CDC20 (Gujar et al., 2016) or AURKA, known to govern self-renewal capacity in glioma-initiating cells via stabilization/activation of β-catenin/Wnt signaling (Xia et al., 2013) and proposed, together with CCNA2, and TPX2, as ideal drug targets in GBM (Du et al., 2020). Table 3. Correlation of GNSCs transcriptomic profiles after BMT9 treatment with published gene signatures of stemness.

[3] = test system: normal human fetal neural stem cells-NSC; assay: Long term MTT viability, normal neural stem cells; type: cell-based; details: CD133-positive NSC, 1.125-4.5 µM
Description: Previous studies have reported that the molecular signature of the GNSC G144 cell line corresponds to a 'proneural' subtype of GB with NSC features (Pollard et al., 2009; Danovi et al., 2013). Thus, to test BMT9 specificity we compared cellular viability when treating CD133-positive cells (either GNSCs or normal human fetal neural stem cells-NSC) versus CD133-negative human embryonic fibroblast (HEFs) (Figure 8A). MTT-based cytotoxicity assay (Figure 7B-D) were performed as previously described.

[4] = test system: G144 cells; assay: Annexin V / propidium iodide apoptosis flow cytometry in G144 cells; type: cell-based, human; details: 48 h
Description: For apoptosis induction analysis, the cells were treated with increasing amounts of BMT9 (4.5 µM and 9 µM) and collected 48 h after treatment. Anexin V and propidium iodide staining was performed using the FITC Annexin V Apoptosis Detection Kit I (BD Biosciences), following the manufacturer's instructions. Flow cytometry was performed with the "MACSQuantify Analyzer" (Miltenyi Biotec) and data were analyzed with "MACSQuantify" software (Miltenyi Biotec) (Figure 7A).

[5] = test system: G144 R500; assay: MTT assay, TMZ-resistant clone G144 R500; type: cell-based; details: Homo sapiens, 72 hours
From the text: (§1) While the first line therapy of gliomas has proven its effectiveness and improved clinical outcomes, acquired chemoresistance to alkylating agents has been identified as a major cause of treatment failure (Sarkaria et al., 2008). In a murine model of GB, long-term treatment with subtoxic TMZ doses enriched the side population of cancer stem cells, increasing the tumor aggressiveness (Bleau et al., 2009). Thus, we generated TMZ-resistant G144-clones that were selected upon treatment with TMZ either at 500 µM or 700 µM for several months (R500 and R700, respectively). The obtained clones maintained CD133 stem marker expression (Figure 9A). We then analyzed BMT9 dose-dependent effect on cell viability, by MTT assay, comparing the resistant clones to parental cells.

[6] = test system: TAp73; assay: Western blot of endogenous TAp73 protein in U373 and T98G glioblastoma cell lines; type: cell-based, human; details: 72 h, BMT9 9 and 18 µM, TMZ 350 µM, BCNU 150 µM
Description: Next, we compared the effect of BMT9 and TMZ or BCNU treatments on endogenous TAp73 protein levels in U373 and T98G glioblastoma cell lines (Figure 2F and G). Cells were treated for 72 h either with BMT9 at 9 and 18 µM, or with TMZ and BCNU at the standard concentrations referred in other articles (350 µM and 150 µM, respectively). Protein extracts were obtained and analyzed by Western blot using a TAp73 specific antibody and GAPDH as a loading control. Densitometric quantification of the obtained blots are represented in Figure 2F and G (Y axis, ratio of TAp73/GAPDH band intensity and X axis, indicated treatments).

[7] = test system: G144 R700; assay: MTT assay, TMZ-resistant clone G144 R700; type: cell-based; details: Homo sapiens, 72 hours
From the text: as §1

[8] = test system: TAp73; assay: Western blot of endogenous TAp73 protein in glioblastoma stem cells G144 and G179; type: cell-based, human; details: G144 and G179, 72 h; BMT9 2.25 µM, TMZ 350 µM, BCNU 150 µM
Description: To specifically address BMT9 effect on endogenous TAp73 protein levels, we performed a Western blot analysis using an anti-TA-specific antibody. Cells were treated for 72 h either with a low dose of BMT9 (2.25 µM), or with TMZ and BCNU at the standard concentrations used in other articles (350 µM and 150 µM, respectively). Protein extracts were obtained and analyzed by Western blot (Figure 4B-C) and densitometric quantification of the autoradiographies was carried out. The ratio of TAp73/GAPDH band intensity was calculated and protein expression levels relative to non-treated (NT) cells were represented (Y axis).

[9] = test system: G179; assay: Scratch (wound healing) assay, G179; type: cell-based; details: G179, 4.5µM, 24 h
Description: The effect of BMT9 in cell migration was evaluated using scratch assays, also known as wound healing assays. Cells were seeded in culture inserts for wound healing assays (Ibidi) at a cell density of 35,000 cells/cm^2; 24 h later the insert was removed to create the wound, and fresh medium was added with the corresponding treatment. Microscopy images were acquired at the time of treatment and 24 h later, using a Leica DMI3000 phase contrast microscope. Analysis was performed using the ImageJ software (Schindelin et al., 2012) and the MRI wound healing tool plugin (Suarez-Arnedo et al., 2020). Cell-free area was measured at the two indicated time points and the wound closure percentage relative to the starting point was calculated for each well individually. This assay was performed in G144 and in G179 cells (Figure 10 B and C, respectively).

[10] = test system: transcript levels originated from the P1-TP73 promoter (TAp73, ΔEx2p73 and ΔEx2/3p73); assay: qRT-PCR of P1-TP73 promoter transcripts in G144 cells; type: cell-based, human; details: G144, 72 h, dose dependent
From the text: As before, all isoforms were reduced by treatment, with TAp73 and ΔEx2/3p73 being the predominant isoforms, while ΔN'p73 was barely detected (Figure 4A). Ribosomal RNA 18S was used as housekeeping control, and all expression levels were normalized to the TAp73 NT value.

C=C1C2CCC(C)(C3COc4c(C)c(OC)c5c(c4C3O)C(O)OC5=O)C1CCC2(C)C (centres unmarked) [BMT9] was tested. Which “percentage of cells in mitosis” value [1] did it give?
The value was 0.1%.

What about the “differentially expressed genes (DEGs)” value [2] of the same compound?
The value was 6163.

And the “cellular viability in long term culture” value [3]?
Its value is “affected”.

What about the apoptosis induction ([4]; G144, 4.5 µM (IC50 dosage)) of the same compound?
Its apoptosis induction is “moderate levels of apoptosis”.

And the apoptosis induction ([4]; G144, 9 µM)?
The apoptosis induction was “strongly induced cell death”.

What about the IC50 [5] of the same compound?
The IC50 was 4.5 to 9 µM.

And the “endogenous TAp73 protein levels (TAp73/GAPDH)” value [6]?
Its value is “efficiently reduced endogenous TAp73 expression”.

What about the IC50 [7] of the same compound?
The IC50 was 3.37 to 4.5 µM.

And the “endogenous TAp73 protein levels (TAp73/GAPDH)” value [8]?
The value was “reduced effectively TAp73 expression”.

What about the “cell migration (wound closure)” value [9] of the same compound?
Its value is “significantly impaired cell migration”.

What about the “transcript levels originated from the P1-TP73 promoter (TAp73, ΔEx2p73 and ΔEx2/3p73)” value [10] of the same compound?
Its value is “downregulated”.

Reference: patent EP4349409A1, “COMPOUNDS FOR THE MANAGEMENT OF CELL STEMNESS AND INVASION IN CANCER AND RELATED DISEASES” (Instituto Biomar S.A., priority 2022, dated 2024)
